Measured values as given in ChEMBL document CHEMBL1126966, “1,25,28-trihydroxyvitamin D2 up-regulates renal vitamin D receptor without causing hypercalcemia” (1993).

How the values were obtained:
Rattus norvegicus [1] = organism: Rattus norvegicus; test: Compound was tested for its ability to stimulate intestinal calcium absorption relative to 1,25(OH)2D3 in rats at a dose of 200ng/rat, expressed as Ca (serosal) /Ca (mucosal); assay type: functional
Rattus norvegicus [2] = organism: Rattus norvegicus; test: Compound was tested for its ability to stimulate bone calcium resorption in serum relative to 1,25(OH)2D3 in rats at a dose of 200 ng/rat; assay type: functional, organism-based
Rattus norvegicus [3] = organism: Rattus norvegicus; test: Compound was tested for its ability to stimulate intestinal calcium absorption relative to 1,25(OH)2D3 in rats at a dose of 50ng/rat, expressed as Ca (serosal) /Ca (mucosal); assay type: functional
Rattus norvegicus [4] = organism: Rattus norvegicus; test: Compound was tested for regulation of kidney VDR in rats; assay type: functional
Rattus norvegicus [5] = organism: Rattus norvegicus; test: Compound was tested for its ability to stimulate bone calcium resorption in serum relative to 1,25(OH)2D3 in rats at a dose of 100 ng/rat; assay type: functional, organism-based
Rattus norvegicus [6] = organism: Rattus norvegicus; test: Compound was tested for increase in plasma calcium concentration in rats; assay type: functional, organism-based
Rattus norvegicus [7] = organism: Rattus norvegicus; test: Compound was tested for its ability to stimulate bone calcium resorption in serum relative to 1,25(OH)2D3 in rats at a dose of 50 ng/rat; assay type: functional, organism-based
Rattus norvegicus [8] = organism: Rattus norvegicus; test: Compound was tested for its ability to stimulate bone calcium resorption in serum relative to 1,25(OH)2D3 in rats at a dose of 25 ng/rat; assay type: functional, organism-based
Rattus norvegicus [9] = organism: Rattus norvegicus; test: Compound was tested for its ability to stimulate intestinal calcium absorption relative to 1,25(OH)2D3 in rats at a dose of 25ng/rat, expressed as Ca (serosal) /Ca (mucosal); assay type: functional
Rattus norvegicus [10] = organism: Rattus norvegicus; test: Compound was tested for its ability to stimulate intestinal calcium absorption relative to 1,25(OH)2D3 in rats at a dose of 100ng/rat, expressed as Ca (serosal) /Ca (mucosal); assay type: functional
Rattus norvegicus [11] = organism: Rattus norvegicus; test: Compound was tested for its ability to stimulate bone calcium resorption in rats at a dose of 12.5 ng/rat; assay type: functional, organism-based

Row | SMILES | Ratio (Rattus norvegicus [1]) | Serum Ca2+ (Rattus norvegicus [2]) | Ratio (Rattus norvegicus [3]) | Kidney VDR (Rattus norvegicus [4]) | Serum Ca2+ (Rattus norvegicus [5]) | Plasma Ca2+ (Rattus norvegicus [6]) | Serum Ca2+ (Rattus norvegicus [7]) | Serum Ca2+ (Rattus norvegicus [8]) | Ratio (Rattus norvegicus [9]) | Ratio (Rattus norvegicus [10]) | Serum Ca2+ (Rattus norvegicus [11])
1 | C=C1/C(=C\C=C2/CCC[C@]3(C)[C@@H]([C@H](C)/C=C/[C@H](CO)C(C)(C)O)CC[C@@H]23)C[C@@H](O)C[C@@H]1O | 3.21 | 4 mg/dL | 2.08 | 249 fM (mg of protein)-1 | 3.8 mg/dL | 10.5 mg/dL | 4.2 mg/dL | 4.1 mg/dL | 2.17 | 2.22 | –
2 | C=C1/C(=C\C=C2/CCC[C@]3(C)[C@@H]([C@H](C)CCCC(C)(C)O)CC[C@@H]23)C[C@@H](O)C[C@@H]1O | – | – | – | – | – | 10.6 mg/dL | – | – | – | – | 4.6 mg/dL
